Experimental data from patent US9957274B2, “Indane inhibitors of EED and methods of their use” (AbbVie Inc., priority 2016, dated 2018).
Where two headings read alike, the source gives them in different places.

Assays:
EED = EED (Homo sapiens, UniProt O75530); assay: EED TR-FRET Binding Assay (modified LanthaScreen competition assay)
Summary of the method: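 Competition binding in a modified LanthaScreen format, in 20 mM Tris-HCl pH 7.5, 200 mM NaCl, 0.01% Tween-20, 10 uM DTT and 0.05% BSA. Reactions ran 1 hour at 25° C before TR-FRET detection.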

[1] = system: H3K27me3 in OCILY19 cells; assay: H3K27me3 AlphaLISA assay in OCILY19 cells; format: cell-based; details: Homo sapiens, OCI-LY19, 144 h, 6 days with compound, read-out: OCILY-19 IC50
Description: 5,000 cells were plated into each well of 96-well Corning CellBing cell culture plates and incubated overnight at 37° C. in a humidified CO2 incubator. […] The cell culture plates were then incubated for 6 more days. H3K27me3 AlphaLISA assay was performed on the cell culture samples by using AlphaLISAR® H3K27me3 Cellular Detection Kit (PerkinElmer) and 96-well white half-area plates (PerkinElmer).

Pfeiffer cells = assay: CTG cell viability assay (CellTiter-Glo); format: cell-based; details: Homo sapiens, 240 h
Description: 1,000 cells were plated into each well of 96-well Corning CellBing cell culture plates and incubated overnight at 37° C. in a humidified CO2 incubator. […] The cell culture plates were then incubated for 10 more days. CTG cell viability assay was performed on the cell culture samples by using CellTiter-Glo® Luminescent Cell Viability Assay Kit (Promega).

[2] = Pfeiffer cells, 10 days with compound, CellTiter-Glo, read-out: Cell Proliferation IC50

Sequence of EED (O75530 whole entry): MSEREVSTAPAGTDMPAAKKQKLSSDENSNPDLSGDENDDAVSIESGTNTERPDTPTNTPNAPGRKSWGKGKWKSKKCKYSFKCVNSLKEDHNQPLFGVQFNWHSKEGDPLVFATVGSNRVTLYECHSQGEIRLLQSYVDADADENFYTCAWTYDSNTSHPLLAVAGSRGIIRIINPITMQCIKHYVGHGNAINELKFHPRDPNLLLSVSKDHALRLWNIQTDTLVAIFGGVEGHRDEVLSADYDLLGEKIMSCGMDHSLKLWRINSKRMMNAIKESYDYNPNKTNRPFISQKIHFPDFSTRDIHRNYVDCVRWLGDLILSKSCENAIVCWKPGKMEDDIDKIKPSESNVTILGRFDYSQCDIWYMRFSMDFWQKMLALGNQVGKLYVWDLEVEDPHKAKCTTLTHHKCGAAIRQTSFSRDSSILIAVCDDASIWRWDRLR

| Structure (SMILES) | IC50 (EED) [nM] | IC50 [1] [nM] | IC50 (Pfeiffer cells; [2]) [µM] | IC50 (Pfeiffer cells; Pfeiffer, read-out: Cell Proliferation IC50 (uM)) [µM] |
| --- | --- | --- | --- | --- |
| CN(C)C(=O)c1ccc([C@H]2CN(C3CCc4cccc(F)c43)C[C@@H]2N(C)C)cc1 (mixture of isomers) [Example 26, rac-4-[(3S,4R)-4-(dimethylamino)-1-(7-fluoro-2,3-dihydro-1H-inden-1-yl)pyrrolidin-3-yl]-N,N-dimethylbenzamide] | 2.51 | 1360 | 3.03 |  |
| Cc1cc([C@H]2CN(C3CCc4cccc(F)c43)C[C@@H]2N(C)C)ccc1C#N (mixture of isomers) [Example 37, rac-4-[(3S,4R)-4-(dimethylamino)-1-(7-fluoro-2,3-dihydro-1H-inden-1-yl)pyrrolidin-3-yl]-2-methylbenzonitrile] | 2.67 | 874 | 2.66 |  |
| CC(=O)N1CCN(c2ccc([C@H]3CN(C4CCc5cccc(F)c54)C[C@@H]3N(C)C)cc2)CC1 (mixture of isomers) [Example 44, rac-1-(4-{4-[(3S,4R)-4-(dimethylamino)-1-(7-fluoro-2,3-dihydro-1H-inden-1-yl)pyrrolidin-3-yl]phenyl}piperazin-1-yl)ethan-1-one] | 0.652 | 144 |  | 0.0836 |
| CN(C)[C@@H]1CN(C2CCc3cccc(F)c32)C[C@H]1c1ccc(N2CCN(C(=O)CO)CC2)cc1 (mixture of isomers) [Example 52, rac-1-(4-{4-[(3R,4S)-4-(dimethylamino)-1-(7-fluoro-2,3-dihydro-1H-inden-1-yl)pyrrolidin-3-yl]phenyl}piperazin-1-yl)-2-hydroxyethan-1-one] | 1 | 75 | 0.0894 |  |
| CN(C)[C@@H]1CN(C2CCc3cccc(F)c32)C[C@H]1c1ccc(N2CCN(C(=O)C(N)=O)CC2)cc1 (mixture of isomers) [Example 54, rac-2-(4-{4-[(3R,4S)-4-(dimethylamino)-1-(7-fluoro-2,3-dihydro-1H-inden-1-yl)pyrrolidin-3-yl]phenyl}piperazin-1-yl)-2-oxoacetamide] | 1.06 | 99.1 | 0.114 |  |
| CN1CCN(c2ccc([C@H]3CN(C4CCc5cccc(F)c54)C[C@@H]3N(C)C)cc2)CC1=O (mixture of isomers) [Example 56, rac-4-{4-[(3S,4R)-4-(dimethylamino)-1-(7-fluoro-2,3-dihydro-1H-inden-1-yl)pyrrolidin-3-yl]phenyl}-1-methylpiperazin-2-one] | 1.39 | 556 | 0.145 |  |
| Cc1cc([C@H]2CN(C3CCc4cccc(F)c43)C[C@@H]2N(C)C)ccc1N1CCN(C)C(=O)C1 (mixture of isomers) [Example 58, rac-4-{4-[(3S,4R)-4-(dimethylamino)-1-(7-fluoro-2,3-dihydro-1H-inden-1-yl)pyrrolidin-3-yl]-2-methylphenyl}-1-methylpiperazin-2-one] | 1.67 | 376 | 0.314 |  |
| CN(C)C(=O)C(=O)N1CCN(c2ccc([C@@H]3CN(C4CCc5cccc(F)c54)C[C@H]3N(C)C)cc2)CC1 (mixture of isomers) [Example 59, rac-2-(4-{4-[(3R,4S)-4-(dimethylamino)-1-(7-fluoro-2,3-dihydro-1H-inden-1-yl)pyrrolidin-3-yl]phenyl}piperazin-1-yl)-N,N-dimethyl-2-oxoacetamide] | 1.07 | 163 | 0.127 |  |
| CN1CCN(c2ccc([C@H]3CN(C4CCc5cccc(F)c54)C[C@@H]3N(C)C)cc2)CC1 (mixture of isomers) [Example 61, rac-(3R,4S)-1-(7-fluoro-2,3-dihydro-1H-inden-1-yl)-N,N-dimethyl-4-[4-(4-methylpiperazin-1-yl)phenyl]pyrrolidin-3-amine] | 1.14 | 804 | 0.204 |  |
| CCS(=O)(=O)N1CCN(c2ccc([C@H]3CN(C4CCc5cccc(F)c54)C[C@@H]3N(C)C)cc2C)CC1 (mixture of isomers) [Example 62, rac-(3R,4S)-4-{4-[4-(ethanesulfonyl)piperazin-1-yl]-3-methylphenyl}-1-(7-fluoro-2,3-dihydro-1H-inden-1-yl)-N,N-dimethylpyrrolidin-3-amine] | 1.35 | 282 | 0.429 |  |
| CN(C)[C@H]1CN(C2CCc3cccc(F)c32)C[C@@H]1c1ccc(N2CCN(C3CC3)CC2)cc1 (mixture of isomers) [Example 64, rac-(3R,4S)-4-[4-(4-cyclopropylpiperazin-1-yl)phenyl]-1-(7-fluoro-2,3-dihydro-1H-inden-1-yl)-N,N-dimethylpyrrolidin-3-amine] | 0.835 | 334 | 0.166 |  |
| CN(C)[C@@H]1CN(C2CCc3cccc(F)c32)C[C@H]1c1ccc(N2CCN(S(=O)(=O)c3cn(C)cn3)CC2)cc1 (mixture of isomers) [Example 73, rac-(3S,4R)-1-(7-fluoro-2,3-dihydro-1H-inden-1-yl)-N,N-dimethyl-4-{4-[4-(1-methyl-1H-imidazole-4-sulfonyl)piperazin-1-yl]phenyl}pyrrolidin-3-amine] | 0.825 | 113 | 0.0995 |  |
| CN1CCN(C(=O)c2cccc3c([C@H]4CN(C5CCc6cccc(F)c65)C[C@@H]4N(C)C)cn(C)c23)CC1=O (mixture of isomers) [Example 125, rac-4-{3-[(3S,4R)-4-(dimethylamino)-1-(7-fluoro-2,3-dihydro-1H-inden-1-yl)pyrrolidin-3-yl]-1-methyl-1H-indole-7-carbonyl}-1-methylpiperazin-2-one] | 1.07 | 203 | 0.268 |  |
| CN(C)[C@H]1CN(C2CCc3cccc(F)c32)C[C@@H]1c1cn(C)c2c(C(=O)N3CCN(S(C)(=O)=O)CC3)cccc12 (mixture of isomers) [Example 126, rac-{3-[(3S,4R)-4-(dimethylamino)-1-(7-fluoro-2,3-dihydro-1H-inden-1-yl)pyrrolidin-3-yl]-1-methyl-1H-indol-7-yl}[4-(methanesulfonyl)piperazin-1-yl]methanone] | 2.14 | 220 | 0.329 |  |
| CC(=O)N1CCN(C(=O)c2cccc3c([C@H]4CN(C5CCc6cccc(F)c65)C[C@@H]4N(C)C)cn(C)c23)CC1 (mixture of isomers) [Example 128, rac-1-(4-{3-[(3S,4R)-4-(dimethylamino)-1-(7-fluoro-2,3-dihydro-1H-inden-1-yl)pyrrolidin-3-yl]-1-methyl-1H-indole-7-carbonyl}piperazin-1-yl)ethan-1-one] | 1.03 | 241 | 0.194 |  |
| CCS(=O)(=O)N1CCN(C(=O)c2cccc3c([C@H]4CN(C5CCc6cccc(F)c65)C[C@@H]4N(C)C)cn(C)c23)CC1 (mixture of isomers) [Example 130, rac-{3-[(3S,4R)-4-(dimethylamino)-1-(7-fluoro-2,3-dihydro-1H-inden-1-yl)pyrrolidin-3-yl]-1-methyl-1H-indol-7-yl}[4-(ethanesulfonyl)piperazin-1-yl]methanone] | 1.05 | 306 | 0.311 |  |
| CN(C)[C@@H]1CN(C2CCc3cccc(F)c32)C[C@H]1c1ccc(N2CCN(C(=O)CNS(C)(=O)=O)CC2)nc1 (mixture of isomers) [Example 155, rac-N-[2-(4-{5-[(3R,4S)-4-(dimethylamino)-1-(7-fluoro-2,3-dihydro-1H-inden-1-yl)pyrrolidin-3-yl]pyridin-2-yl}piperazin-1-yl)-2-oxoethyl]methanesulfonamide] | 1.75 | 3220 | 0.395 |  |
